Reference: PubChem BioAssay (NCI)
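Values below derive from 48-hour exposures of cells grown in 96-well plates, with endpoints linearly interpolated between the two concentrations bracketing the appropriate inhibition level. Here, GI50 denotes the concentration required for 50% inhibition of growth. At the TGI there is no net growth.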

Tests used:
Experiment in all cases: NCI anticancer screen, dose series, 48 h
UACC-257 melanoma = test system: UACC-257 melanoma
M14 melanoma = test system: M14 melanoma
UO-31 renal = test system: UO-31 renal
U251 CNS = test system: U251 CNS
OVCAR-5 ovarian = test system: OVCAR-5 ovarian
SNB-19 CNS = test system: SNB-19 CNS
NCI-H522 lung = test system: NCI-H522 lung
PC-3 prostate = test system: PC-3 prostate
MALME-3M melanoma = test system: MALME-3M melanoma
OVCAR-8 ovarian = test system: OVCAR-8 ovarian
MDA-MB-231 breast = test system: MDA-MB-231 breast
SK-MEL-5 melanoma = test system: SK-MEL-5 melanoma
IGROV1 ovarian = test system: IGROV1 ovarian
OVCAR-4 ovarian = test system: OVCAR-4 ovarian
T-47D breast = test system: T-47D breast
MCF7 breast = test system: MCF7 breast
TK-10 renal = test system: TK-10 renal
K-562 leukemia = test system: K-562 leukemia
NCI-H226 lung = test system: NCI-H226 lung
SK-MEL-2 melanoma = test system: SK-MEL-2 melanoma
HOP-62 NSCLC = test system: HOP-62 NSCLC
NCI-H23 lung = test system: NCI-H23 lung
HCC-2998 colon = test system: HCC-2998 colon
SN12C renal = test system: SN12C renal
SF-295 CNS = test system: SF-295 CNS
NCI-H460 lung = test system: NCI-H460 lung
SF-539 CNS = test system: SF-539 CNS
MDA-MB-435 = test system: MDA-MB-435
A498 renal = test system: A498 renal
HT29 colon = test system: HT29 colon
UACC-62 melanoma = test system: UACC-62 melanoma
DU-145 prostate = test system: DU-145 prostate
NCI/ADR-RES ovarian = test system: NCI/ADR-RES ovarian
OVCAR-3 ovarian = test system: OVCAR-3 ovarian
RPMI-8226 leukemia = test system: RPMI-8226 leukemia
A549 NSCLC = test system: A549 NSCLC
HS 578T breast = test system: HS 578T breast
SW-620 colon = test system: SW-620 colon
HL-60(TB) leukemia = test system: HL-60(TB) leukemia
SK-OV-3 ovarian = test system: SK-OV-3 ovarian
HCT-116 colon = test system: HCT-116 colon
HCT-15 colon = test system: HCT-15 colon
CAKI-1 renal = test system: CAKI-1 renal
HOP-92 NSCLC = test system: HOP-92 NSCLC
SNB-75 CNS = test system: SNB-75 CNS
MOLT-4 leukemia = test system: MOLT-4 leukemia
SK-MEL-28 melanoma = test system: SK-MEL-28 melanoma
COLO 205 colon = test system: COLO 205 colon
786-0 renal = test system: 786-0 renal
CCRF-CEM leukemia = test system: CCRF-CEM leukemia
SF-268 CNS = test system: SF-268 CNS
LOX IMVI melanoma = test system: LOX IMVI melanoma
BT-549 breast = test system: BT-549 breast
RXF 393 renal = test system: RXF 393 renal
ACHN renal = test system: ACHN renal
KM12 colon = test system: KM12 colon

## Cn1c([N+](=O)[O-])cnc1/C=C1\Oc2ccc(Br)cc2C1=O
UACC-257 melanoma
  GI50: 854 nM
  TGI: 4070 nM
M14 melanoma
  GI50: 445 nM
  TGI: 2100 nM
UO-31 renal
  GI50: 240 nM
  TGI: 765 nM
U251 CNS
  GI50: 466 nM
  TGI: 2540 nM
OVCAR-5 ovarian
  GI50: 1480 nM
  TGI: 5640 nM
SNB-19 CNS
  GI50: 1190 nM
  TGI: 6170 nM
NCI-H522 lung
  GI50: 357 nM
  TGI: 1040 nM
PC-3 prostate
  GI50: 471 nM
MALME-3M melanoma
  GI50: 683 nM
  TGI: 2210 nM
OVCAR-8 ovarian
  GI50: 266 nM
MDA-MB-231 breast
  GI50: 374 nM
  TGI: 4810 nM
SK-MEL-5 melanoma
  GI50: 213 nM
  TGI: 586 nM
IGROV1 ovarian
  GI50: 469 nM
OVCAR-4 ovarian
  GI50: 1580 nM
  TGI: > 20200 nM
T-47D breast
  GI50: 5410 nM
  TGI: > 75900 nM
MCF7 breast
  GI50: 330 nM
  TGI: 7970 nM
TK-10 renal
  GI50: 671 nM
  TGI: 2640 nM
K-562 leukemia
  GI50: 400 nM
  TGI: 3280 nM
NCI-H226 lung
  GI50: 1380 nM
  TGI: 4890 nM
SK-MEL-2 melanoma
  GI50: 445 nM
  TGI: 1960 nM
HOP-62 NSCLC
  GI50: 1140 nM
  TGI: 3950 nM
NCI-H23 lung
  GI50: 432 nM
  TGI: 2350 nM
HCC-2998 colon
  GI50: 995 nM
  TGI: 3620 nM
SN12C renal
  GI50: 421 nM
  TGI: 4160 nM
SF-295 CNS
  GI50: 1700 nM
  TGI: 7850 nM
NCI-H460 lung
  GI50: 253 nM
  TGI: 654 nM
SF-539 CNS
  GI50: 922 nM
  TGI: 3280 nM
MDA-MB-435
  GI50: 253 nM
  TGI: 731 nM
A498 renal
  GI50: 1720 nM
  TGI: 4670 nM
HT29 colon
  GI50: 231 nM
  TGI: 622 nM
UACC-62 melanoma
  GI50: 993 nM
  TGI: 2680 nM
DU-145 prostate
  GI50: 338 nM
  TGI: 933 nM
NCI/ADR-RES ovarian
  GI50: 609 nM
  TGI: 74400 nM
OVCAR-3 ovarian
  GI50: 276 nM
  TGI: 690 nM
RPMI-8226 leukemia
  GI50: 352 nM
  TGI: 2870 nM
A549 NSCLC
  GI50: 927 nM
  TGI: 5200 nM
HS 578T breast
  GI50: 890 nM
  TGI: > 23400 nM
SW-620 colon
  GI50: 157 nM
  TGI: 537 nM
HL-60(TB) leukemia
  GI50: 334 nM
  TGI: 1570 nM
SK-OV-3 ovarian
  GI50: 1450 nM
  TGI: 6080 nM
HCT-116 colon
  GI50: 179 nM
  TGI: 652 nM
HCT-15 colon
  GI50: 193 nM
  TGI: 657 nM
CAKI-1 renal
  GI50: 277 nM
  TGI: 950 nM
HOP-92 NSCLC
  GI50: 369 nM
  TGI: 2580 nM
SNB-75 CNS
  GI50: 1040 nM
  TGI: 4450 nM
MOLT-4 leukemia
  GI50: 316 nM
  TGI: 7300 nM
SK-MEL-28 melanoma
  GI50: 532 nM
  TGI: 2870 nM
COLO 205 colon
  GI50: 925 nM
  TGI: 3170 nM
786-0 renal
  GI50: 557 nM
  TGI: 2070 nM
CCRF-CEM leukemia
  GI50: 200 nM
  TGI: 706 nM
SF-268 CNS
  GI50: 299 nM
  TGI: 933 nM
LOX IMVI melanoma
  GI50: 209 nM
  TGI: 543 nM
BT-549 breast
  GI50: 715 nM
  TGI: 4760 nM
RXF 393 renal
  GI50: 416 nM
  TGI: 1940 nM
ACHN renal
  GI50: 212 nM
  TGI: 585 nM
KM12 colon
  GI50: 312 nM
  TGI: 957 nM
